Source: patent US20200354331A1, “ICARIIN DERIVATIVES” (H. LEE MOFFITT CANCER CENTER AND RESEARCH INSTITUTE, INC., priority 2014, published 2020)
Where two headings read alike, the source gives them in different places. Values belong to the compound of their own block, whether it stands above or below them.

Columns and labels:
Gr-1+CD11b+ MDSCs = assay: Circulating Gr-1+CD11b+ MDSC in spleens of 4T1 tumor-bearing mice (flow cytometry); assay type: in vivo, BALB/c mice; details: 100 mg/kg i.p. three times weekly, vehicle 50.28%
Protocol: FIG. 1 depicts the effects of ICA or ICT on the differentiation of MDSC. MDSC were isolated from spleens of 4T1 tumor-bearing mice. The maturation markers indicated were used to evaluate the differentiation and accumulation of MDSC in tumor bearing mice. Cell phenotype was evaluated by flow cytometry. One of the most striking features of ICA and ICT is their anti-tumorigenic ability in vivo. Seven days post-infection 1 cm diameter 4T1 tumors from 5 mice were established in BALB/c mice. Mice were treated with 100 mg/kg of ICA, ICT or vehicle (i.p.) three times weekly and tumor size (mean and SD) was monitored every 2 to 3 days. The percentages of double-positive Gr-1+CD11b′ MDSCs were determined for spleens of five mice per group. Cell phenotype was evaluated by flow cytometry. […] ICA or ICT on the differentiation of MDSC.

[1] = tested on: CD16 (FcγRIII) in CD3− CD56+ NK cells; assay: Surface expression of CD16 in NK cells (flow cytometry); assay type: cell-based; details: PBMC from healthy donors, 48 hours treatment
Protocol: FIG. 16 depicts the effect of ICA and ICT treatment on the surface expression of CD16 (FcγRIII) in NK cells. PBMC from healthy donors were treated with ICA/ICT or DMSO for 48 hours before analysis of CD16 expression by flow cytometry. NK cells were defined as CD3^− population and analyzed for the presence of CD16±CD56^+ cells as indicated.
An alternative strategy can be performed by measuring NK-mediated antibody dependent cytotoxicity (ADCC) on SIGLEC3^+ MDSC. […] This is particularly of interest, because these Fc receptors can be critical for the development of ADCC, a cytotoxic function of NK cells. This function can involve the activation of NK cells through the ligation of CD16 with an antibody already bound to a target cell which can trigger the target cell to undergo apoptosis through the release of cytotoxic granules containing perform and granzymes. Humanized anti-SIGLEC3/CD33 antibodies can be used to apply a strategy to deplete MDSC by NK-mediated ADCC.

U937 = assay: IC50 / toxicity in cells; assay type: cell-based; details: Homo sapiens, U-937
MDS BMNCs = assay: Colony formation (CFU-GM, BFU-E) in MethoCult H4434; assay type: cell-based; details: 20 uM for 48 h, 14 days culture
Protocol: Bone marrow mononuclear cells (BMCs) from MDS patients were treated with 20 uM ICT for 48 h, and then seeded into MethoCult H4434 complete medium, the mixture is placed in 35-mm culture dishes (1×10^5 cells/each dish) and incubated at 37° C. in 5% CO2 for 14 days. After incubation, colonies of CFU-GM and BFU-E were identified and counted using an inverted light microscope, as shown in FIGS. 21A and 21B respectively. Each point represents the mean results of […], and each experimental point represents duplicate plates. Results are expressed as mean value±SD.

PBMC = assay: IC50 / toxicity in cells; assay type: cell-based
PP2A bound to PDE5 = target: T1, PP2A bound to PDE5 (Homo sapiens, UniProt O76074); assay: Co-immunoprecipitation of PDE5 with PP2A in PBMC; assay type: cell-based; details: 48 hours
T1 construct: Cells were then lysed and PDE5 was immunoprecipitated following a Western Blot with anti-PP2A; endogenous in cells; host or cells: human PBMC
Protocol: Human PBMC were cultured for 48 hours with media, DMSO or increasing doses of ICT (1, 5, 10, 20 μM respectively). Cells were then lysed and PDE5 was immunoprecipitated following a Western Blot with anti-PP2A. Coomasie blue staining of the membrane is shown as loading control.
(§1) To understand if there is a link correlating S100A9/SIGLEC3 and PDE5 activation, SJCRH30 cells were transfected with either vector, S100A9 or SIGLEC 3. Seventy two hours post-transfection cells were lysed and assessed by Western Blot for either PDE5 or its phosphorylated counterpart.

[2] = tested on: MDSCs isolated from tumors of 4T1 tumor-bearing mice; assay: ROS and NO production of MDSC isolated from tumors; assay type: cell-based; details: MDSCs from tissue of tumor-bearing mice, 20 μM, 48 h
Protocol: FIGS. 3A-3C depicts the effect of ICA and ICT on expansion of MDSCs isolated from tumor and their ROS and NO production. Gr1^+ cells were isolated from tumors of 4T1 tumor-bearing mice. (FIG. 3A) MDSCs were treated with 20 μM of ICA, ICT, or DMSO for 48 h. Bars represent the relative percentage of MDSC as compared to DMSO treated cells measured by flow cytometry. (FIG. 3B) Production of ROS and (FIG. 3C) NO activity of purified MDSC from tumor tissue.
Specifically, BMNCs from three healthy donors were treated with different concentrations of ICA or ICT for 48 hours after which colony formation was assessed using MethoCult H4434 complete medium with cytokines. The mixture was placed in 35-mm culture dishes (1×10^5 cells/each dish) and incubated at 37° C. in 5% CO2 for approximately 7-14 days. After incubation, colonies of CFU-E, BFU-E and CFU-GM were indentified and counted using an inverted light microscope. […] Although, these cells were obtained from spleens, it was also found ICA/ICT has a similar effect on MDSCs isolated from tumor tissue. Here, Gr1^+ cells were isolated from tumors of 4T1 tumor-bearing mice. […] Bars represent the relative percentage of MDSC as compared to DMSO treated cells measured by flow cytometry (FIG. 3A). The production of ROS (FIG. 3B) and NO (FIG. 3C) activity of purified MDSC from tumor tissue was also measured.

PP2A = target: T2, PP2A (Homo sapiens, UniProt P67775); assay: PP2A activity in PBMC lysates, in vitro phosphatase assay kit; assay type: cell-based; details: 48 hours, 1 μM
T2 construct: endogenous in cells; host or cells: human PBMC
Protocol: FIG. 9 depicts the effect of ICA and ICT on the activity of PP2A. Human PBMC were cultured for 48 hours with media, DMSO, 1 μM of ICA or ICT. The cell lysates were used to analyze PP2A activity using a commercial in vitro phosphatase assay kit (Millipore). Error bars represent the SEM of three separate experiments.
as §1, with “counterpart. […] This represents a new pathway of MDSC activation that can be specifically targeted by ICA, ICT, and their derivatives disclosed herein.” for “counterpart.”

Bone marrow = assay: IC50 / toxicity in cells; assay type: cell-based; details: Mus musculus
Protocol: Specifically, BMNCs from three healthy donors were treated with different concentrations of ICA or ICT for 48 hours after which colony formation was assessed using MethoCult H4434 complete medium with cytokines. The mixture was placed in 35-mm culture dishes (1×10^5 cells/each dish) and incubated at 37° C. in 5% CO2 for approximately 7-14 days. After incubation, colonies of CFU-E, BFU-E and CFU-GM were indentified and counted using an inverted light microscope. […] Although, these cells were obtained from spleens, it was also found ICA/ICT has a similar effect on MDSCs isolated from tumor tissue. Here, Gr1^+ cells were isolated from tumors of 4T1 tumor-bearing mice. MDSCs were treated with 20 μM of ICA, ICT, or DMSO for 48 h. Bars represent the relative percentage of MDSC as compared to DMSO treated cells measured by flow cytometry (FIG. 3A). The production of ROS (FIG. 3B) and NO (FIG. 3C) activity of purified MDSC from tumor tissue was also measured.

T2 sequence (P67775 whole entry): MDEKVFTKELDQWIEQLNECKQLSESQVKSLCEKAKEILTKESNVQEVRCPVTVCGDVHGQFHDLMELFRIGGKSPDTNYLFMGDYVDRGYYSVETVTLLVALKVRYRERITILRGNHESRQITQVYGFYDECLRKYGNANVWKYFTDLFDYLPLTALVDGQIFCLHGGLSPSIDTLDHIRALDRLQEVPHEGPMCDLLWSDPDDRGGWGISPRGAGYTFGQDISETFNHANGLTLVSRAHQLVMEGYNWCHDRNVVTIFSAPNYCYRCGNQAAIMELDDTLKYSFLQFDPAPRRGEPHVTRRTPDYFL

SMILES: COc1ccc(-c2oc3c(CC=C(C)C)c(O[C@@H]4O[C@H](CO)[C@@H](O)[C@H](O)[C@H]4O)cc(O)c3c(=O)c2O[C@@H]2O[C@@H](C)[C@H](O)[C@@H](O)[C@H]2O)cc1 [ICA, Icariin]
- percent of circulating MDSC (Gr-1+CD11b+ MDSCs): 33.35%
- expression level of Fc receptor (CD16, FcγRIII) in NK cells [1]: increase the expression level of Fc receptor
- IC50 (U937): > 100 µM
- hematopoiesis of MDS BMNCs (CFU-GM, BFU-E colonies) (MDS BMNCs): increase the hematopoiesis of MDS BMNCs
- IC50 (PBMC): > 100 µM
- association of PP2A with PDE5 (PP2A bound to PDE5): decreased
- NO and ROS production by MDSCs [2]: inhibit NO and ROS production
- phosphatase activity of PP2A (PP2A): up-regulate the phosphatase activity of PP2A in vitro
- IC50 (Bone marrow; BMMC): > 100 µM

- association of PP2A with PDE5 (PP2A bound to PDE5): decreased
SMILES: COc1ccc(-c2oc3c(CCC(C)(C)O)c(O)cc(O)c3c(=O)c2O)cc1 [ICT, 3,5,7-trihydroxy-4′-methoxy-8-(3-hydroxy-3-methylbutyl)-flavone]
- percent of circulating MDSC (Gr-1+CD11b+ MDSCs): 26.97%
- expression level of Fc receptor (CD16, FcγRIII) in NK cells [1]: increase the expression level of Fc receptor
- IC50 (U937; U937, read-out: IC50): > 100 µM
- hematopoiesis of MDS BMNCs (CFU-GM, BFU-E colonies) (MDS BMNCs): increase the hematopoiesis of MDS BMNCs
- IC50 (PBMC; read-out: IC50): > 100 µM
- NO and ROS production by MDSCs [2]: inhibit NO and ROS production
- phosphatase activity of PP2A (PP2A): up-regulate the phosphatase activity of PP2A in vitro
- IC50 (Bone marrow; Bone marrow (bone marrow mononuclear cells, BMMC), read-out: IC50): > 100 µM
